Source: patent publication US20120093726A1, “Radiolabeled Fluorine Derivatives of Methionine” (priority 2009, published 2012)

Legend:
[1] = system: A431 squamous cell carcinoma xenografts; experiment: PET imaging of tracer uptake in A431 tumoured mice; assay type: in vivo, Balb/c Nude mice; settings: intravenous, PET at 90 minutes post-tracer injection
Experimental: (§1) In vivo imaging studies were performed on a Phillips Allegro™ small animal imaging system in mice implanted with A431 squamous cell carcinoma and HT-29 colon carcinoma xenografts on the left leg of Balb/c Nude mice. Approximately 400 μCi of each of D and L ^18FPM in 100 μl saline were injected intravenously and PET imaging performed at 90 minutes post-tracer injection. A comparison with FDG (fluorodeoxyglucose) uptake was also performed.

[2] = system: HT-29 colon carcinoma xenografts; experiment: PET imaging of tracer uptake in HT29 tumoured mice; assay type: in vivo, Balb/c Nude mice; settings: intravenous, PET at 90 minutes post-tracer injection
Experimental: as §1

[3] = system: HT29 cells; experiment: Competitive inhibition study of tracer uptake, HT29; assay type: cell-based, human; settings: MeAIB 12.5 mmol/L aliquot, 30 min, 37° C.
Experimental: (§2) The human A375 (malignant melanoma), A431 (epidermoid carcinoma), HT29 (colorectal adenocarcinoma), MCF-7 (breast adenocarcinoma), MDA-MB-231 (breast adenocarcinoma), PC-3 (prostate adenocarcinoma) tumour cells were grown in RPMI-1640 medium supplemented with 10% fetal bovine serum (FBS) and 2 mM L-glutamine. The human H460 (large cell lung carcinoma) cell line was grown in RPMI-1640 supplemented with 10% FBS, 1 mM L-glutamine and 1 mM sodium pyruvate. The MiaPaCa2 human pancreatic carcinoma cell line was grown in Dulbecco's Modified Eagle medium supplemented with 10% FBS, 2.5% horse serum, 1 mM L-glutamine and 1 mM sodium pyruvate. The human U87MG glioblastoma cell line was cultured in Minimum Essential Medium supplemented with 10% FBS, 2 mM L-glutamine and 1 mM sodium pyruvate. Cells were maintained in 175 cm^2 flasks in a 5% CO2, 37° C. humidified incubator. Cells were passaged routinely every 7 days and the media changed twice weekly. […]
(§3) On the day of the study, the cells were counted and the viability assessed in triplicate for each cell line. […] After stopping the tracer uptake with 1 mL of ice-cold PBS, cells were solubilised with 500 μL of 0.2N NaOH and the activity was measured with a gamma counter. The results were expressed as percent of applied dose per 1×10^5 cells. The percentage of uptake in the treatment groups, relative to the control group was determined.

[4] = system: H460 cells; experiment: Competitive inhibition study of tracer uptake, H460; assay type: cell-based, human; settings: MeAIB 12.5 mmol/L aliquot, 30 min, 37° C.
Experimental: as §2, §3

[5] = system: HT29 (colorectal adenocarcinoma) tumour cells; experiment: Cell uptake study, HT29; assay type: cell-based, human; settings: HT29 colon cell line
Experimental: as §2
as §3, with “cells.” for “cells. The percentage of uptake in the treatment groups, relative to the control group was determined.”

[6] = system: MiaPaCa2 human pancreatic carcinoma cell line; experiment: Cell uptake study, MiaPaCa2; assay type: cell-based; settings: MiaPaCa2 tumour cell line
Experimental: as §2
as §3, with “cells.” for “cells. The percentage of uptake in the treatment groups, relative to the control group was determined.”

[7] = system: various types of tumour cells; experiment: Cell uptake study, panel of tumour cell lines; assay type: cell-based, human; settings: for uptake into tumour cells: particularly MCF-7, U87MG, MiaPaCa2 and A375 cell lines
Experimental: (§4) The human A375 (malignant melanoma), A431 (epidermoid carcinoma), HT29 (colorectal adenocarcinoma), MCF-7 (breast adenocarcinoma), MDA-MB-231 (breast adenocarcinoma), PC-3 (prostate adenocarcinoma) tumour cells were grown in RPMI-1640 medium supplemented with 10% fetal bovine serum (FBS) and 2 mM L-glutamine. The human H460 (large cell lung carcinoma) cell line was grown in RPMI-1640 supplemented with 10% FBS, 1 mM L-glutamine and 1 mM sodium pyruvate. The MiaPaCa2 human pancreatic carcinoma cell line was grown in Dulbecco's Modified Eagle medium supplemented with 10% FBS, 2.5% horse serum, 1 mM L-glutamine and 1 mM sodium pyruvate. The human U87MG glioblastoma cell line was cultured in Minimum Essential Medium supplemented with 10% FBS, 2 mM L-glutamine and 1 mM sodium pyruvate. Cells were maintained in 175 cm^2 flasks in a 5% CO2, 37° C. humidified incubator. Cells were passaged routinely every 7 days and the media changed twice weekly.
(§5) One day prior to the experiments, cell cultures were trypsinised with a solution of 0.05% trypsin in PBS without Ca^2+ and Mg^2+ and containing 0.02% EDTA. Cells were seeded in 24-well culture dishes in complete medium and left to attach overnight. For MCF-7 cells, 3×10^5 cells were seeded, for all other cell lines, 2.5×10^5 cells were seeded.
(§6) On the day of the study, the cells were counted and the viability assessed in triplicate for each cell line. Before the incubation with radiolabelled FPM, cells were washed once with PBS containing Ca^2+ and Mg^2+ to remove all traces of the culture medium. The radiolabelled FPM was formulated in PBS containing Ca^2+ and Mg^2+. Aliquots of 500 μL (˜10 μCi) of freshly prepared FPM were added and the cells were incubated in triplicate at 37° C. for 2, 15, 30, 60, 120, 180 and 240 min. After stopping the tracer uptake with 1 mL of ice-cold PBS, cells were solubilised with 500 μL of 0.2N NaOH and the activity was measured with a gamma counter. The results were expressed as percent of applied dose per 1×10^5 cells.

[8] = system: MiaPaCa2 cells; experiment: Competitive inhibition study of tracer uptake, MiaPaCa2; assay type: cell-based, human; settings: MeAIB 12.5 mmol/L aliquot, 30 min, 37° C.
Experimental: as §2, §3

[9] = system: sodium-independent L type transport system in tumour cell lines; experiment: Competitive inhibition study of tracer uptake, all cell lines; assay type: cell-based, human; settings: for tracer uptake in the presence of BCH: all cell lines, BCH 12.5 mmol/L aliquot, 30 min, 37° C.; for transport mechanism of cell uptake: from inhibition by BCH and MeAIB
Experimental: as §4, §5
Inhibitor studies were carried out to investigate the transport mechanism involved in the uptake of FPM in tumour cells. The following amino acid transport inhibitors were used; 2-amino-bicyclo[2.2.1]-heptane-2-carboxylic acid (BCH) and N-methyl-α-aminoisobutyric acid (MeAIB) for the sodium-independent L type transport system and the A type amino acid transport system respectively.
On the day of the study, the cells were counted and the viability assessed in triplicate for each cell line. Before the incubation with radiolabelled FPM, cells were washed once with PBS containing Ca^2+ and Mg^2+ to remove all traces of the culture medium. Aliquots of 400 μL of inhibitor (12.5 mmol/L in PBS with Ca^2+ and Mg^2+) or PBS (for controls) were added to cells prior to the addition of radiolabelled FPM. Aliquots of 100 μL (about 10 μCi) of freshly prepared FPM were added and the cells were incubated in triplicate at 37° C. for 30 min. After stopping the tracer uptake with 1 mL of ice-cold PBS, cells were solubilised with 500 μL of 0.2N NaOH and the activity was measured with a gamma counter. The results were expressed as percent of applied dose per 1×10^5 cells. The percentage of uptake in the treatment groups, relative to the control group was determined.

[10] = system: MCF-7 (breast adenocarcinoma) tumour cells; experiment: Cell uptake study, MCF-7; assay type: cell-based, human; settings: for uptake, rank among the cell lines: MCF-7 breast tumour cell line, 37° C., 2-240 min; for time for which uptake increased before staying at the same level: MCF-7 cell line
Experimental: as §4, §5, §6

[11] = cited from earlier work
[12] = Radiochemical purity and stability in aqueous formulations (HPLC); assay type: physicochemical
Experimental: The stability of [^18F]-L-FPHCys and [^18F]-D-FPHCys formulated in each of the following solutions: • 1) 5% EtOH/95% phosphate buffer, pH 6, 0.15 M (HLPC solvent) • 2) saline • 3) Dulbecco's phosphate buffered saline, pH 7 • 4) Phosphate buffer, pH 7. were analysed by HPLC using a Gemini 150×4.6 mm, 5 μm, eluting with 100% Phosphate Buffer, pH 11.5, 0.05 M at 1 mL/min, λ=226 nm.

Compound | percent injected dose (% ID) in tumour [1] | tumour to background ratio [1] | percent injected dose (% ID) in tumour [2] | tumour to background ratio [2] | tracer uptake in the presence of MeAIB, % of control uptake [4] | uptake, rank among the cell lines [5] | time of peak uptake [6] | uptake into tumour cells [7] | tracer uptake in the presence of BCH [9] | transport mechanism of cell uptake [9] | uptake, rank among the cell lines [10] | time for which uptake increased before staying at the same level [10] | also measured
OC[C@H]1OC(O)[C@H]([18F])[C@@H](O)[C@@H]1O (stereo partly drawn) [FDG, [^18F]Fluoro-2-deoxy-D-glucose, reference compound] | 5.84% | 3.33 | 2.37% | 2.11 | – | – | – | – | – | – | – | – | –
N[C@@H](CCSCCC[18F])C(=O)O [[^18F]-L-FPHCys, S-(3-[^18F]fluoropropyl)-L-homocysteine] | 2.12% | 5.39 | 2.13% | 2.45 | 70% | lowest uptake | 30 | high uptake | significantly inhibited | predominantly taken up by cells via the sodium-independent L type transport system | highest | 120 min | tracer uptake in the presence of MeAIB, % of control uptake [3]: 84%; uptake compared with the other enantiomer ([7]; all cell lines): higher; tracer uptake in the presence of MeAIB, % of control uptake [8]: 79%
N[C@@H](CCSCC[18F])C(=O)O [[^18F]FEHCys, S-(2-[^18F]fluoroethyl)-L-homocysteine] | – | – | – | – | – | – | – | – | – | – | – | – | stability in aqueous systems [11]: considerable instability
N[C@@H](CCSCCC[18F])C(=O)O [[^18F]FPHCys, S-(3-[^18F]fluoropropyl)homocysteine] | – | – | – | – | – | – | – | – | – | – | – | – | stability in an aqueous environment compared with the S-ethyl homologue ([12]; aqueous environment): substantially more stable
S-(3-[^18F]fluoropropyl)-D-homocysteine [[^18F]-D-FPHCys] | 1.96% | 7.86 | 0.75% | 2.10 | 76% | lowest uptake | 30 min | high uptake | significantly inhibited | predominantly taken up by cells via the sodium-independent L type transport system | highest | 120 min | % ROI of product peak, F18 chromatogram (radiochemical purity) ([12]; 5% EtOH/95% phosphate buffer, pH 6, 0.15 M (HPLC solvent), t=0): 99.74%; % ROI of product peak, F18 chromatogram (radiochemical purity) ([12]; 5% EtOH/95% phosphate buffer, pH 6, 0.15 M (HPLC solvent), t=4 h): 99.06%; % ROI of product peak, F18 chromatogram (radiochemical purity) ([12]; Dulbecco's phosphate buffered saline, pH 7, t=0): 98.97%; % ROI of product peak, F18 chromatogram (radiochemical purity) ([12]; Dulbecco's phosphate buffered saline, pH 7, t=4 h): 96.20%; % ROI of product peak, F18 chromatogram (radiochemical purity) ([12]; PBS (phosphate buffer, pH 7), t=0): 98.44%; % ROI of product peak, F18 chromatogram (radiochemical purity) ([12]; PBS (phosphate buffer, pH 7), t=4 h): 96.51%; % ROI of product peak, F18 chromatogram (radiochemical purity) ([12]; saline, t=0): 99.30%; % ROI of product peak, F18 chromatogram (radiochemical purity) ([12]; saline, t=4 h): 95.23%
